Test results: patent EP0007880B1, “Medicines containing as active ingredients compounds of the benzene-sulfone type; compounds of this type and process for their preparation” (CHOAY S.A., priority 1978, dated 1980)

Experiments:
[1] = test system: rats Wistar mâles; test: Normolipemic and/or hypoglycemic activity in Triton W.R.-induced hyperlipidemia in fasted rats; type: in vivo; set-up: Cholestérol Total / Cholestérol Estérifié / Trigly-cérides: unit not given here; details: fasted rats given Triton W.R. 200mg/kg i.v.; for Cholestérol Estérifié / Cholestérol Total / Glucose / Lipides totaux / Trigly-cérides: product given simultaneously, i.p. 100 mg/kg or oral 500 mg/kg (route not stated per product), blood sampled six hours later; for Cholestérol Rapport E/T: ratio esterified/total cholesterol, product i.p. 100 mg/kg or oral 500 mg/kg, six hours later
Description: Les essais sont réalisés sur des groupes de 5 rats Wistar mâles (150 à 175g). Les produits testés sont administrés soit par voie intrapéritonéale, à raison de 100 mg/kg dans du soluté isotonique, soit par voie orale, en solution aqueuse à 3% de gomme adragante (1 ml/100g de poids corporel) en quantité correspondant à 500 mg/kg.
Pour ces essais, on provoque une hyperlipidémie chez les animaux au moyen du produit commercialisé par la Société ROHM et HAAS sous le nom de Triton W.R. Chez le rat à jeun, l'injection intraveineuse de Triton entraine une hyperlipidémie particulièrement nette pour les triglycérides .et de façon moindre pour les lipides totaux.
Cette hyperlipidémie est combattue par l'action des substances actives selon l'invention.
Le protocole de l'essai est le suivant. Les rats sont mis à jeûner pendant 18 heures. Le Triton W.R. est administré par voie intraveineuse en solution aqueuse à 10% à raison de 200mg/kg.
Simultanément, les rats reçoivent les produits à tester. Six heures plus tard, on effectue les dosages de façon traditionnelle sur des échantillons sanguins.

[2] = test system: souris Swiss; test: Acute toxicity in mice (lethal dose 50, Behrens and Karber); type: in vivo; details: dose 1,5g/kg, voie intrapéritonéale; mice observed 8 days

SMILES | Cholestérol Estérifié [1] | Cholestérol Total [1] | Glucose [1] | Lipides totaux [1] | Trigly-cérides [1] | Cholestérol Rapport E/T [1] | animaux encore en vie [2]
O=S(=O)(CC(O)c1ccccc1)c1ccccc1 (stereo not shown) [Exemple 22] | 1,89 | 2,28 | 1,18 g/l | 8,50 g/l | 3,95 | 82,4 | –
O=S(=O)(CC(O)c1ccccc1)c1ccc(F)cc1 (stereo not shown) [Exemple 28] | 0,66 | 1,24 | 1,22 g/l | 6,0 g/l | 4,31 | 54,4 | –
CC(C)(O)CS(=O)(=O)c1ccccc1 [Exemple 19] | 1,09 | 2,04 | 0,78 g/l | 7,62 g/l | 2,84 | 55,6 | –
O=S(=O)(CC(O)c1ccc(F)cc1)c1ccccc1 (stereo not shown) [Exemple 24] | 0,98 | 1,48 | 1,12 g/l | 15,30 g/l | 1,80 | 69,40 | –
O=S(=O)(CC(O)c1ccc(Cl)cc1)c1ccccc1 (stereo not shown) [Exemple 23] | – | – | – | – | – | – | 5 animaux sur 5 sont encore en vie
CC(C)(Oc1ccc(Cl)cc1)C(=O)OCCCS(=O)(=O)c1ccccc1 [Exemple 47] | 0,90 | 1,52 | 0,97 g/l | 10,28 g/l | 4,56 | 59,99 | –
O=S(=O)(CC1(O)CCCCC1)c1ccc(F)cc1 [Exemple 32] | 0,73 | 1,14 | 0,92 g/l | 10,99 g/l | 4,00 | 65,17 | –
CC(C(O)(c1ccccc1)c1ccccc1)S(=O)(=O)c1ccccc1 (stereo not shown) [Exemple 27] | – | – | – | – | – | – | 5 animaux sur 5 sont encore en vie
O=S(=O)(CCCO)c1ccccc1 [Exemple 40] | 0,99 | 1,56 | 0,93 g/l | 3,76 g/l | – | 61,2 | –
O=S(=O)(CC1(O)CCCCC1)c1ccccc1 [Exemple 21] | 2,06 | 3,09 | 0,89 g/l | 9,56 g/l | 2,23 | 66,0 | –
CCC(C)(O)CS(=O)(=O)c1ccccc1 (stereo not shown) [Exemple 20] | 1,64 | 2,20 | 0,84 g/l | 7,36 g/l | 2,07 | 76,8 | –
